Read-outs that look alike come from different tables or passages of the source. Marks after values point to notes of the source that are not given here.
Tests used:
[1] = system: sodium channels; set-up: method as in PMID 19341281; settings: reported previously / values reported in literature; read-out: [3H]sipatrigine binding, IC50; cited from earlier work
[2] = system: rat hippocampal slices; test: in vitro neuroprotection assay, hippocampal slices under oxygen-glucose deprivation, ATP levels; type: cell-based; settings: for Emax at 50 µM: Rattus norvegicus
[3] = target: hNav1.7 (Homo sapiens, UniProt Q15858); test: automated patch-clamp Nav isoform screening; type: cell-based; settings: Nav1.7
[4] = target: hNav1.5 (Homo sapiens, UniProt Q14524); test: automated patch-clamp Nav isoform screening; type: cell-based; settings: Nav1.5
[5] = target: hNav1.2 (Homo sapiens, UniProt Q99250); test: automated patch-clamp Nav isoform screening; type: cell-based; settings: Nav1.2
[6] = target: hNav1.3 (Homo sapiens, UniProt Q9NY46); test: automated patch-clamp Nav isoform screening; type: cell-based; settings: Nav1.3
[7] = target: hNav1.6 (Homo sapiens, UniProt Q9UQD0); test: automated patch-clamp Nav isoform screening; type: cell-based; settings: Nav1.6
[8] = target: hNav1.1 (Homo sapiens, UniProt P35498); test: automated patch-clamp Nav isoform screening; type: cell-based; settings: Nav1.1
[9] = system: T-cell proliferation to oxazolone in lymphnodes; test: contact hypersensitivity model / in vivo local lymph node assay (T-cell immunosuppressive activity); settings: mouse, 5–50 mg/kg i.p. day −1 to day 2, oxazolone sensitization day 0, read day 3
[10] = target: hNav1.8/β3 (Homo sapiens, UniProt Q9Y5Y9); test: automated patch-clamp Nav isoform screening; type: cell-based; settings: Nav1.8
[11] = target: hNav1.4 (Homo sapiens, UniProt P35499); test: automated patch-clamp Nav isoform screening; type: cell-based; settings: Nav1.4
[12] = system: rat hippocampal slices; set-up: method as in PMID 19341281; settings: reported previously; cited from earlier work
[13] = normalized to the effect of TTX

Chain of hNav1.3 (Q9NY46 whole entry, canonical isoform): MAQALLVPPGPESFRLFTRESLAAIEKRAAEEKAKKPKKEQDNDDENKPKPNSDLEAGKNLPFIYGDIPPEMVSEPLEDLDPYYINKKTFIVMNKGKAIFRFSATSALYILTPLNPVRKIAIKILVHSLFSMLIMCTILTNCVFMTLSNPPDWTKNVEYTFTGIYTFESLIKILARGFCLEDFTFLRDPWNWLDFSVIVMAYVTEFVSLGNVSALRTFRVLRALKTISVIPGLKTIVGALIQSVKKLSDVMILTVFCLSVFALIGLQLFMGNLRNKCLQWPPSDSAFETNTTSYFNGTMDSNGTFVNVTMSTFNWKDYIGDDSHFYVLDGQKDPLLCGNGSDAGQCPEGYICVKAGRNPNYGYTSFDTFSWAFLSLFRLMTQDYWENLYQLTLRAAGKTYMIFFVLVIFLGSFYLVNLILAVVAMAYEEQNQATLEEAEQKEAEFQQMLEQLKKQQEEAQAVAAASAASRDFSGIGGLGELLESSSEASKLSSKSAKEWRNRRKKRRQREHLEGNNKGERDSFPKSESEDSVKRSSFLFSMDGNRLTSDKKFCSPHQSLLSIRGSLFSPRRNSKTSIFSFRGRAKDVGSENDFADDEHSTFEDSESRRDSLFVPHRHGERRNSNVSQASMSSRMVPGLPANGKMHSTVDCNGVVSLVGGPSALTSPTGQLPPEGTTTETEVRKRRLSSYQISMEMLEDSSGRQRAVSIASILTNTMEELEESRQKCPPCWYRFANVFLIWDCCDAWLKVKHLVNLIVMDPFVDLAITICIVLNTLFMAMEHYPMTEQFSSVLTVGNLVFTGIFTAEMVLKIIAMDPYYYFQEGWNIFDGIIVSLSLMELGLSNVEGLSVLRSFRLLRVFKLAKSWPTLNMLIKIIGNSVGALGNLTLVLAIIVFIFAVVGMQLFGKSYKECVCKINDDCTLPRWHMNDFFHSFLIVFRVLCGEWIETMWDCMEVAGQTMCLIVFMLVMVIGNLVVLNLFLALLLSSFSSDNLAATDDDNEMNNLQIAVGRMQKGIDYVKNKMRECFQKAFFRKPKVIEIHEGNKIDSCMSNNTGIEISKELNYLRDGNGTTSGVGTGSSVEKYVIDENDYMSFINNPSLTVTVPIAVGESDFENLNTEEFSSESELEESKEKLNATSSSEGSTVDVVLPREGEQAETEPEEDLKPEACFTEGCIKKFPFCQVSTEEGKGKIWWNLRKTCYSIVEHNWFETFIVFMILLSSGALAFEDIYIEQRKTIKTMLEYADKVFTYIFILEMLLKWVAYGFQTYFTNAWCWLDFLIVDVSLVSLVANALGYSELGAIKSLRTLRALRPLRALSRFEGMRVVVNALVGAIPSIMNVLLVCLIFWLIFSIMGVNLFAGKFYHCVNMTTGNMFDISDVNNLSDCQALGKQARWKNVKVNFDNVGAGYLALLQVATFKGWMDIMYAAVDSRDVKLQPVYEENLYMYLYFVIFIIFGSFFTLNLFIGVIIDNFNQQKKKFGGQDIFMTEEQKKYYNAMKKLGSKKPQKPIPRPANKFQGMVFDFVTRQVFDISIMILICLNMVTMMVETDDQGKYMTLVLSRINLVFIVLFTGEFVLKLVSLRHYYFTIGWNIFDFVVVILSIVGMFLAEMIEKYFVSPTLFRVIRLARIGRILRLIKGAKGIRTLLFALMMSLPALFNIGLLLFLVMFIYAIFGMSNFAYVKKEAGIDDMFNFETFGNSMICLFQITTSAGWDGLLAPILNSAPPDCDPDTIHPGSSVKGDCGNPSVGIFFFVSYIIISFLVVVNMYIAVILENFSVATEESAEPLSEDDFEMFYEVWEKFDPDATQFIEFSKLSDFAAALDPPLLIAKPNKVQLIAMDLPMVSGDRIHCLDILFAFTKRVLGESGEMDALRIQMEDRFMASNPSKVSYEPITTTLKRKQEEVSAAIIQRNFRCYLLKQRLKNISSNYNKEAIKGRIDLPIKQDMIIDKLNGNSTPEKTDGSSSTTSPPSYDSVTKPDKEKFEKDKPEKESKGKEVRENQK
Chain of hNav1.6 (Q9UQD0 whole entry, canonical isoform): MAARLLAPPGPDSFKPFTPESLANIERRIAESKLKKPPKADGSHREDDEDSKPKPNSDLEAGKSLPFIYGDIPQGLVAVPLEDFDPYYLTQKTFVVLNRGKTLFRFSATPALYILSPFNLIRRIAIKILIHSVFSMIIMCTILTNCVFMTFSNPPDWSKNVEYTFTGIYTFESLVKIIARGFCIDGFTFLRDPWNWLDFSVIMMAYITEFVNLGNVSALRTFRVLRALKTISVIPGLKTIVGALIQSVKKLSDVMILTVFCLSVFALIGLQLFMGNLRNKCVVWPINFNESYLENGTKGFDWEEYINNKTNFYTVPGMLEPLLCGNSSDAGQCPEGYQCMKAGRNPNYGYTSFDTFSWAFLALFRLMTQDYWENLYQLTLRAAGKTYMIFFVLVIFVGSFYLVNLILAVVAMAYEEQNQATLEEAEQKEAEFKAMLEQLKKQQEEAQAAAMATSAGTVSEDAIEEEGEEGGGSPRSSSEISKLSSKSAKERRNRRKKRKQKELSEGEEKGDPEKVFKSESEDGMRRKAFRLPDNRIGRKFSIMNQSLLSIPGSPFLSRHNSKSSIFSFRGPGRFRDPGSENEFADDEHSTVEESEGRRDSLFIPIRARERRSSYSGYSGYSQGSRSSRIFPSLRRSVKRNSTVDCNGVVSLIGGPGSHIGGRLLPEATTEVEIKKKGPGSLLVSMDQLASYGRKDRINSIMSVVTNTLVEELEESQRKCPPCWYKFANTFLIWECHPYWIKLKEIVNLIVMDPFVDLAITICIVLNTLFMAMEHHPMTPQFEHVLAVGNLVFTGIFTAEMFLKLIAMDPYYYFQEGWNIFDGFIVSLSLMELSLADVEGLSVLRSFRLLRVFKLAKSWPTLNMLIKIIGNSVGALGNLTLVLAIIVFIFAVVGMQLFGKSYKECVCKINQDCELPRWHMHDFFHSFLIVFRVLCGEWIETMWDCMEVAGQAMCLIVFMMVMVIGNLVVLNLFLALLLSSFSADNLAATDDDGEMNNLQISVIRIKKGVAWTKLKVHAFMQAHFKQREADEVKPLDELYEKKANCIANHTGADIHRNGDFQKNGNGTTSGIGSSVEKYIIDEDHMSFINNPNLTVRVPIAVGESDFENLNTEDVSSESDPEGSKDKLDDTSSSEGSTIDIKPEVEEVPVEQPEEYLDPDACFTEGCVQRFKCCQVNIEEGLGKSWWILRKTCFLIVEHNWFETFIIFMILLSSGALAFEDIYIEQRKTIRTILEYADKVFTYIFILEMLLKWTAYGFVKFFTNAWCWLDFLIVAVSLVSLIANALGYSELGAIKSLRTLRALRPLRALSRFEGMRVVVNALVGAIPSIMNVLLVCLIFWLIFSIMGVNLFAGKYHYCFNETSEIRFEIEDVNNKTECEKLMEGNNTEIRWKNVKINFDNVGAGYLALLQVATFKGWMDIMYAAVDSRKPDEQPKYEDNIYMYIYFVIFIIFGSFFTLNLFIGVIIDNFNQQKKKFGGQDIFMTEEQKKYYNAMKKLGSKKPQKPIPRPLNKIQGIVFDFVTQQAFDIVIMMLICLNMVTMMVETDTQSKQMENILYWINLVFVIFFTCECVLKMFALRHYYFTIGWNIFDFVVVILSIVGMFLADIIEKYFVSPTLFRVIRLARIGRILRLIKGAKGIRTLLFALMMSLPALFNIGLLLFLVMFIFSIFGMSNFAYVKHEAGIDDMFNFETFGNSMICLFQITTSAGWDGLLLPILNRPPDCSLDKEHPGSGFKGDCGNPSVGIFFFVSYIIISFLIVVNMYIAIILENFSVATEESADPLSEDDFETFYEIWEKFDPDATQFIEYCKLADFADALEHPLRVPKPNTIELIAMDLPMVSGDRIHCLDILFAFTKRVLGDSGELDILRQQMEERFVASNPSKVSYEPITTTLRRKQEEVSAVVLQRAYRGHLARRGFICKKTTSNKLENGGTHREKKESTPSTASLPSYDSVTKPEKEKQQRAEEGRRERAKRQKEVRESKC

## Nc1nnc(-c2cccc(Cl)c2Cl)c(N)n1 [lamotrigine, reference compound]
[1]
  IC50: 1.8 ± 0.2 µM
[2]; tested at 30 μM, normalized to the effect of TTX
  neuroprotection: 33 ^b %

## O=C(NCc1noc(-c2nn(CCn3ccnc3)c3ccccc23)n1)c1ccccc1 [compound 6, N-[[5-[1-(2-Imidazol-1-ylethyl)indazol-3-yl]-1,2,4-oxadiazol-3-yl]methyl]benzamide]
[3]
  inactivated-state block (c) n (slope of the fit): 2.24 ± 0.17
  tonic block (a) n (slope of the fit): 2.09 ± 1.73
[4]
  10 Hz block (b) n (slope of the fit): 1.16 ± 0.54
  inactivated-state block (c) n (slope of the fit): 0.99 ± 0.22
[5]
  10 Hz block (b) n (slope of the fit): 1.82 ± 0.73
  inactivated-state block (c) n (slope of the fit): 1.48 ± 0.38
  tonic block (a) n (slope of the fit): 1.12 ± 0.51
[6]
  inactivated-state block (c) n (slope of the fit): 0.78 ± 0.15
[7]
  inactivated-state block (c) n (slope of the fit): 2.45 ± 2.59
[8]
  inactivated-state block (c) n (slope of the fit): 1.71 ± 0.73
[9]
  T-cell immunosuppressive activity (inhibitory effect of sensitization; lymph node cell numbers, per cell proliferative response): no evidence suggestive of any inhibitory effect of sensitization
[10]
  inactivated-state block (c) n (slope of the fit): 1.42 ± 0.1
[2]; [13]
  Emax at 50 µM: 46%
[11]
  10 Hz block (b) n (slope of the fit): 1.21 ± 0.36
  inactivated-state block (c) n (slope of the fit): 1.43 ± 0.27

## O=C(NCc1noc(-c2c3ccccc3nn2CCn2ccnc2)n1)c1cccc(OC(F)(F)F)c1 [compound 51]
[3]
  10 Hz block (b) n (slope of the fit): 2.63 ± 0.33
  inactivated-state block (c) n (slope of the fit): 2.5 ± 0.1
  tonic block (a) n (slope of the fit): 2.59 ± 0.41
[4]
  10 Hz block (b) n (slope of the fit): 0.37 ± 0.13
  inactivated-state block (c) n (slope of the fit): 0.49 ± 0.15
  tonic block (a) n (slope of the fit): 0.76 ± 0.23
[5]
  10 Hz block (b) n (slope of the fit): 0.63 ± 0.14
  inactivated-state block (c) n (slope of the fit): 0.6 ± 0.12
  tonic block (a) n (slope of the fit): 0.48 ± 0.14
[6]
  10 Hz block (b) n (slope of the fit): 0.35 ± 0.19
  inactivated-state block (c) n (slope of the fit): 0.96 ± 0.19
[7]
  10 Hz block (b) n (slope of the fit): 0.42 ± 0.19
  inactivated-state block (c) n (slope of the fit): 1.17 ± 0.18
[8]
  10 Hz block (b) n (slope of the fit): 1.32 ± 0.16
  inactivated-state block (c) n (slope of the fit): 2.09 ± 0.32
  tonic block (a) n (slope of the fit): 1.09 ± 0.24
[10]
  10 Hz block (b) n (slope of the fit): 2.62 ± 1.05
  inactivated-state block (c) n (slope of the fit): 2.75 ± 0.66
  tonic block (a) n (slope of the fit): 2.14 ± 0.51
[11]
  10 Hz block (b) n (slope of the fit): 1.34 ± 0.13
  inactivated-state block (c) n (slope of the fit): 1.75 ± 0.12
  tonic block (a) n (slope of the fit): 1.23 ± 0.18

## O=C(NCc1noc(-c2c3ccccc3nn2CCn2ccnc2)n1)c1ccccc1 [compound 34]
[2]; [13]
  Emax at 50 µM: 41 ± 9.4%

## CC(C)(C)OC(=O)NCc1noc(-c2c3ccccc3nn2Cc2ccccc2)n1 [compound 15]
[1]
  IC50: 5.5 µM
[12]
  neuroprotection at 50 μM: 25 ^e %

## NCc1noc(-c2nn(Cc3ccccc3)c3ccccc23)n1 [compound 24]
[1]
  IC50: 3.3 ± 0.6 µM

## NC1=N[C@H](O)[C@H]2[C@H]3O[C@]4(O)O[C@@H]([C@@H](O)[C@@]2(N1)[C@@H]4O)[C@]3(O)CO [tetrodotoxin, reference compound]
[2]
  neuroprotection: 100 ^c %

## CN1CCN(c2ncc(-c3cc(Cl)cc(Cl)c3Cl)c(N)n2)CC1 [sipatrigine, reference compound]
[1]
  IC50: 0.04 ± 0.001 µM
[2]; tested at 3 μM
  neuroprotection: 93 ^d %

## COc1cccc(C(=O)NCc2noc(-c3nn(CCn4ccnc4)c4ccccc34)n2)c1OC [compound 41]
[2]; [13]
  Emax at 50 µM: 71%

## CC(C)(C)OC(=O)NCc1noc(-c2nn(Cc3ccccc3)c3ccccc23)n1 [compound 14]
[1]
  IC50: 8.3 µM
[12]
  neuroprotection at 50 μM: 19 ^e %

## NCc1noc(-c2c3ccccc3nn2Cc2ccccc2)n1 [compound 25]
[1]
  IC50: 7 ± 2.8 µM

Source: article PMC4010550, “Imidazol-1-ylethylindazole Voltage-Gated Sodium Channel Ligands Are Neuroprotective during Optic Neuritis in a Mouse Model of Multiple Sclerosis” (Journal of Medicinal Chemistry, 2014)
